Columns and labels:
Assay type in all cases: in vivo
Viola = assay: Post-emergence test/greenhouse, Viola; conditions: after three weeks
Procedure: (§1) Solvent: 5 parts by weight of acetone
(§2) Emulsifier: 1 part by weight of alkylaryl polyglycol ether
(§3) To produce a suitable preparation of active compound, 1 part by weight of active compound is mixed with the stated amount of solvent, the stated amount of emulsifier is added and the concentrate is diluted with water to the desired concentration.
(§4) Test plants of a height of 5-15 cm are sprayed with the preparation of active compound such that the particular amounts of active compound desired are applied per unit area. The concentration of the spray liquor is chosen so that the particular amounts of active compound desired are applied in 1000 l of water/ha.
(§5) After three weeks, the degree of damage to the plants is rated in % damage in comparison to the development of the untreated control.
(§6) 0%=no effect (like untreated control)

[1] = tested on: crop plants, such as, for example, maize, barley and wheat; assay: Post-emergence test, tolerance by crop plants; conditions: result in words
Procedure: as §1, §2, §3, §4, §5, §6

Datura = assay: Post-emergence test/greenhouse, Datura; conditions: after three weeks
Procedure: as §1, §2, §3, §4, §5, §6

barley = assay: Post-emergence test/greenhouse, barley; conditions: after three weeks
Procedure: as §1, §2, §3, §4, §5, §6

Ipomoea = assay: Post-emergence test/greenhouse, Ipomoea; conditions: after three weeks
Procedure: as §1, §2, §3, §4, §5, §6

weeds [2] = assay: Post-emergence test, activity against weeds; conditions: result in words
Procedure: as §1, §2, §3, §4, §5, §6

wheat [3] = assay: Post-emergence test/greenhouse, wheat; conditions: after three weeks
Procedure: as §1, §2, §3, §4, §5, §6

Solanum [4] = assay: Post-emergence test/greenhouse, Solanum; conditions: after three weeks
Procedure: as §1, §2, §3, §4, §5, §6

weeds [5] = assay: Pre-emergence test, activity against weeds; conditions: result in words
Procedure: as §1, §2, §3
(§7) Seeds of the test plants are sown in normal soil. After about 24 hours, the soil is sprayed with the preparation of active compound such that the particular amount of active compound desired is applied per unit area. The concentration of the spray liquor is chosen so that the particular amount of active compound desired is applied in 1000 liters of water per hectare.
as §5, §6

Setaria = assay: Post-emergence test/greenhouse, Setaria; conditions: 500 g of ai./ha, after three weeks
Procedure: as §1, §2, §3, §4, §5, §6

[6] = tested on: crop plants, such as, for example, cotton, maize, wheat and barley; assay: Pre-emergence test, tolerance by crop plants; conditions: result in words
Procedure: as §1, §2, §3, §7, §5, §6

Amaranthus = assay: Pre-emergence test/greenhouse, Amaranthus; conditions: after three weeks
Procedure: as §1, §2, §3, §7, §5, §6

Alopecurus = assay: Pre-emergence test/greenhouse, Alopecurus; conditions: after three weeks
Procedure: as §1, §2, §3, §7, §5, §6

maize = assay: Pre-emergence test/greenhouse, maize; conditions: after three weeks
Procedure: as §1, §2, §3, §7, §5, §6

Sinapis = assay: Pre-emergence test/greenhouse, Sinapis; conditions: 1000 g of ai./ha, after three weeks
Procedure: as §1, §2, §3, §7, §5, §6

wheat [7] = assay: Pre-emergence test/greenhouse, wheat; conditions: 500 g of ai./ha, after three weeks
Procedure: as §1, §2, §3, §7, §5, §6

Solanum [8] = assay: Pre-emergence test/greenhouse, Solanum; conditions: 500 g of ai./ha, after three weeks
Procedure: as §1, §2, §3, §7, §5, §6

Veronica = assay: Pre-emergence test/greenhouse, Veronica; conditions: 504 h, 500 g of ai./ha, after three weeks, read-out: degree of damage, Veronica
Procedure: as §1, §2, §3, §7, §5, §6

Digitaria = assay: Pre-emergence test/greenhouse, Digitaria; conditions: 500 g of ai./ha, after three weeks
Procedure: as §1, §2, §3, §7, §5, §6

Chenopodium = assay: Pre-emergence test/greenhouse, Chenopodium; conditions: 500 g of ai./ha, after three weeks
Procedure: as §1, §2, §3, §7, §5, §6

CCC(CCc1cc(Br)cs1)Nc1nc(N)nc(C(C)(C)F)n1 (racemic) [Example 2]
degree of damage, Viola (Viola; 125 g of ai./ha): 95%
tolerance by crop plants [1]: tolerated well
degree of damage, Datura (Datura; 125 g of ai./ha): 95%
degree of damage, barley (barley; 125 g of ai./ha): 0%
degree of damage, Ipomoea (Ipomoea; 125 g of ai./ha): 95%
activity against weeds (weeds [2]): strong activity against weeds
degree of damage, wheat (wheat [3]; 125 g of ai./ha): 0%
degree of damage, Solanum (Solanum [4]; 125 g of ai./ha): 100%

CCC(CCc1ccc(Br)s1)Nc1nc(N)nc(C(C)F)n1 (racemic) [Example 4]
degree of damage, Viola (Viola; 500 g of ai./ha): 100%
tolerance by crop plants [1]: tolerated well
degree of damage, Datura (Datura; 500 g of ai./ha): 95%
activity against weeds (weeds [5]): strong activity against weeds
degree of damage, barley (barley; 500 g of ai./ha): 0%
degree of damage, Ipomoea (Ipomoea; 500 g of ai./ha): 95%
activity against weeds (weeds [2]): strong activity against weeds
degree of damage, Setaria (Setaria): 80%
degree of damage, wheat (wheat [3]; 500 g of ai./ha): 0%
tolerance by crop plants [6]: largely tolerated well
degree of damage, Solanum (Solanum [4]; 500 g of ai./ha): 95%

CCC(CCc1ccc(Br)s1)Nc1nc(N)nc(C(C)(C)F)n1 (racemic) [Example 5]
degree of damage, Viola (Viola; 500 g of ai./ha): 95%
tolerance by crop plants [1]: tolerated well
degree of damage, Datura (Datura; 500 g of ai./ha): 100%
activity against weeds (weeds [5]): strong activity against weeds
degree of damage, barley (barley; 500 g of ai./ha): 0%
degree of damage, Ipomoea (Ipomoea; 500 g of ai./ha): 95%
activity against weeds (weeds [2]): strong activity against weeds
degree of damage, wheat (wheat [3]; 500 g of ai./ha): 0%
tolerance by crop plants [6]: largely tolerated well
degree of damage, Solanum (Solanum [4]; 500 g of ai./ha): 100%

CC(CCCc1cccs1)Nc1nc(N)nc(C(C)(C)F)n1 (stereo not drawn) [drawing 225]
degree of damage, Amaranthus (Amaranthus; 1000 g of ai./ha): 95%
degree of damage, Alopecurus (Alopecurus; 1000 g of ai./ha): 80%
degree of damage, maize (maize; 1000 g of ai./ha): 0%
degree of damage, Sinapis (Sinapis): 90%

CCC(CCc1ccc(Br)s1)Nc1nc(N)nc(C(C)F)n1 (stereo not drawn) [drawing 226]
degree of damage, maize (maize; 500 g of ai./ha): 0%
degree of damage, wheat (wheat [7]): 0%

CCC(CCc1ccc(Br)s1)Nc1nc(N)nc(C(C)(C)F)n1 (stereo not drawn) [drawing 227]
degree of damage, maize (maize; 500 g of ai./ha): 0%
degree of damage, wheat (wheat [7]): 0%

CCC(CCc1cc(Br)cs1)Nc1nc(NC(C)=O)nc(C(C)F)n1 (stereo not drawn) [drawing 228]
degree of damage, maize (maize; 500 g of ai./ha): 0%

CCC(CCc1cc(Br)cs1)Nc1nc(NC(C)=O)nc(C(C)(C)F)n1 (stereo not drawn) [drawing 229]
degree of damage, Alopecurus (Alopecurus; 500 g of ai./ha): 95%
degree of damage, wheat (wheat [7]): 0%

CCC(CCc1sccc1Br)Nc1nc(N)nc(C(C)(C)F)n1 (stereo not drawn) [drawing 230]
degree of damage, Amaranthus (Amaranthus; 500 g of ai./ha): 100%

CCC(CCc1sccc1Br)Nc1nc(N)nc(C(C)F)n1 (stereo not drawn) [drawing 231]
degree of damage, Amaranthus (Amaranthus; 500 g of ai./ha): 100%

CCC(CCc1sccc1Br)Nc1nc(NC(C)=O)nc(C(C)F)n1 (stereo not drawn) [drawing 232]
degree of damage, Amaranthus (Amaranthus; 500 g of ai./ha): 100%
degree of damage, wheat (wheat [7]): 0%

CCC(CCc1cc(C)sc1C)Nc1nc(N)nc(C(C)F)n1 (stereo not drawn) [drawing 233]
degree of damage, Amaranthus (Amaranthus; 500 g of ai./ha): 100%
degree of damage, maize (maize; 500 g of ai./ha): 0%
degree of damage, wheat (wheat [7]): 0%

CCC(CCc1cc(C)sc1C)Nc1nc(NC(C)=O)nc(C(C)(C)F)n1 (stereo not drawn) [drawing 234]
degree of damage, maize (maize; 500 g of ai./ha): 0%
degree of damage, wheat (wheat [7]): 0%

CCC(CCc1ccc(Br)s1)Nc1nc(N)nc(C(C)F)n1 (stereo not drawn) [drawing 236]
degree of damage, Solanum (Solanum [8]): 100%
pest or weed control at 500 g/ha (Veronica): 100%
degree of damage, Digitaria (Digitaria): 100%
degree of damage, Chenopodium (Chenopodium): 100%

CCC(CCc1ccc(Br)s1)Nc1nc(N)nc(C(C)(C)F)n1 (stereo not drawn) [drawing 237]
degree of damage, Solanum (Solanum [8]): 100%
pest or weed control at 500 g/ha (Veronica): 100%
degree of damage, Digitaria (Digitaria): 100%
degree of damage, Chenopodium (Chenopodium): 100%

CCC(CCc1cc(Br)cs1)Nc1nc(NC(C)=O)nc(C(C)F)n1 (stereo not drawn) [drawing 238]
pest or weed control at 500 g/ha (Veronica): 100%
degree of damage, Chenopodium (Chenopodium): 100%

CCC(CCc1cc(Br)cs1)Nc1nc(NC(C)=O)nc(C(C)(C)F)n1 (stereo not drawn) [drawing 239]
degree of damage, Solanum (Solanum [8]): 100%
pest or weed control at 500 g/ha (Veronica): 100%
degree of damage, Digitaria (Digitaria): 100%
degree of damage, Chenopodium (Chenopodium): 100%
